Assay results from US12391919B2, “Culture medium, coating matrix and method for maturing midbrain dopaminergic progenitor cells” (NUWACELL BIOTECHNOLOGIES CO., LTD., priority 2022, dated 2025).

Test system: imDAPs
Experiment: imDAP expansion: cell morphology, cell number (Vi-cell cytometer), expansion fold, Population Doubling Time
Assay type: cell-based, human
Settings: for attachment and morphology of imDAPs on the coated surface: Example 8, coating 1 μg/cm^2, day 4, FIG. 4A
Experimental: imDAPs were produced according to the method described in CN201910169525.0. The imDAPs (P0) were seeded on VTN-coated plates (1 μg/cm^2) at a density of 1×10^5 cells/cm^2 in the expansion medium (50% DMEM/F12, 50% Neurobasal™ medium, 1% (v/v) Glutamax, 2% (v/v) B27 (50×), 0.2 μM LDN193189, 3 μM CHIR99021, 100 ng/mL FGF8b) in the absence or presence of 5 μM Blebbistatin. In case where Blebbistatin is present, Blebbistatin was either removed 24 hrs after plating or present throughout the culture period. The medium was changed every day for 5 days.
imDAPs were produced according to the method described in CN201910169525.0. The imDAPs (P0) were seeded on VTN-coated plates (1 μg/cm^2) at a density of 1×10^5 cells/cm^2 in the expansion medium (50% DMEM/F12, 50% Neurobasal™ medium, 1% (v/v) Glutamax, 2% (v/v) B27 (50×), 3 μM CHIR99021, 100 ng/mL FGF8b, […]) in the absence or presence of 0.2 μM LDN193189. The medium was changed every day for 5 days.
imDAPs were produced according to the method described in CN201910169525.0. The imDAPs (P0) were seeded on VTN-coated plates (1 μg/cm^2) at a density of 1×10^5 cells/cm^2 in the expansion medium (50% DMEM/F12, 50% Neurobasal™ medium, 1% (v/v) Glutamax, 2% (v/v) B27 (50×), 0.2 μM LDN193189, 3 μM CHIR99021, 100 ng/mL FGF8b, 5 μM Blebbistatin). The medium was changed every day. When imDAPs reach 100% confluence (4-5 days), cells were passaged enzymatically with 1× TrypLE, centrifuged at 250 g for 5 minutes, counted and replaced on new VTN-coated plates (1 μg/cm^2) at a density of 1×10^5 cells/cm^2 in the expansion medium. imDAPs were continuously expanded for 6 passages. At each passage, imDAPs were harvested at an expansion fold 5˜10 (over the initial number of imDAPs plated).
imDAPs were produced according to the method described in CN201910169525.0. The imDAPs (P0) were seeded on DLL4-coated ([…]), VTN-coated (1 μg/cm^2) and DLL4/VTN-coated ([…]) plates at a low density of 1×10^4 cells/cm^2 respectively, and cultured in the expansion medium in the absence or presence of 5 µM SB431542. Medium was replaced every 3rd day until reaching 100% confluence (6 days) for cell collection. The typical cell morphology on day 4 was recorded (FIG. 4A). The cell number of each group was counted by Vi-cell cytometer (FIG. 4B). The cells of each group were stained with Foxa2-PE antibody (BD, #561589), the percentage of Foxa2+ imDAPs were analyzed by flow cytometry (FIG. 4C). The expansion medium used in this example contained the following components: 50% DMEM/F12, 50% Neurobasal™ medium, 1% (v/v) Glutamax, 1% (v/v) B27, 50 μg/ml ascorbic acid, 0.2 μM LDN193189, 100 ng/ml FGF8b, 3 μM CHIR99021 and 10 μM Y27632.
imDAPs were produced according to the method described in CN201910169525.0. The imDAPs (P0) were seeded on DLL4/VTN-coated (1 μg/cm^2 for each) plates at a low density of 1×10^4 cells/cm^2, and cultured in the expansion medium (EM1, EM2, EM3, EM4). Medium was replaced every 3rd day until reaching 100% confluence (6 days) for cell collection. EM1 used in Example 9 contained the following components: 50% DMEM/F12, 50% Neurobasal™ medium, 1% (v/v) Glutamax, 1% (v/v) B27 (50×), […], 3 μM CHIR99021, 5 μM SB431542 and 10 μM Y27632. EM2 used in Example 9 contained the following components: 50% DMEM/F12, 50% Neurobasal™ medium, 1% (v/v) Glutamax, 1% (v/v) B27 (50×), 50 μg/ml ascorbic acid, […] LDN193189, 3 μM CHIR99021, 5 μM SB431542 and 10 μM Y27632. EM3 used in Example 9 contained the following components: 50% DMEM/F12, 50% Neurobasal™ medium, 1% (v/v) Glutamax, 1% (v/v) B27 (50×), 50 μg/mL ascorbic acid, […], 100 ng/ml FGF8b, 3 μM CHIR99021, 5 μM SB431542 and 10 μM Y27632. EM4 used in Example 9 contained the following components: 50% DMEM/F12, 50% Neurobasal™ medium, 1% (v/v) Glutamax, 1% (v/v) B27 (50×), 50 μg/ml ascorbic acid, 0.2 μM LDN193189, 10 ng/ml FGF2, 3 μM CHIR99021, 5 μM SB431542 and 10 μM Y27632. […]

c1ccc2c(-c3cnn4cc(-c5ccc(N6CCNCC6)cc5)cnc34)ccnc2c1 [LDN193189]
cell morphology of expanded imDAPs (Example 2, with vs without 0.2 μM LDN193189, VTN-coated plates, 5 days, FIG. 1B): cultured without LDN193189 showed more flattened morphology
imDAP expansion (overall conclusion) (Example 9): had no additional effects on imDAP expansion
cell number during expansion (Example 9, added to medium with CHIR99021, SB431542 and Y27632, DLL4/VTN-coated, 6 days, FIG. 5B): had no additional effect on increasing the cell number during expansion

DLL4: Notch agonist used as second coating matrix
attachment and morphology of imDAPs on the coated surface: could not support the attachment of imDAPs

B1: VTN: vitronectin, first coating matrix that supports cell adhesion (protein, UniProt P04004 20-478, looked up)
Vitronectin: DQESCKGRCTEGFNVDKKCQCDELCSYYQSCCTDYTAECKPQVTRGDVFTMPEDEYTVYDDGEEKNNATVHEQVGGPSLTSDLQAQSKGNPEQTPVLKPEEEAPAPEVGASKPEGIDSRPETLHPGRPQPPAEEELCSGKPFDAFTDLKNGSLFAFRGQYCYELDEKAVRPGYPKLIRDVWGIEGPIDAAFTRINCQGKTYLFKGSQYWRFEDGVLDPDYPRNISDGFDGIPDNVDAALALPAHSYSGRERVYFFKGKQYWEYQFQHQPSQEECEGSSLSAVFEHFAMMQRDSWEDIFELLFWGRTSAGTRQPQFISRDWHGVPGQVDAAMAGRIYISGMAPRPSLAKKQRFRHRNRKGYRSQRGHSRGRNQNSRRPSRATWLSLFSSEESNLGANNYDDYRMDWLVPATCEPIQSVFFFSGDKYYRVNLRTRRVDTVDPPYPRSIAQYWLGCPAPGHL
attachment and morphology of imDAPs on the coated surface: showed flattened morphology
